Reference: ChEMBL document CHEMBL1201862, “PubChem BioAssay data set” (2004)
Calls of active or inactive are those of the source.

Columns and labels:
[1] = target: T1, Runt-related transcription factor 1/Core-binding factor subunit beta (Homo sapiens, UniProt Q01196+Q13951); experiment: inhibitors of RUNX1 Runt–CBFb-SMMHC binding, primary screen, biochemical, FRET, Cerulean-Runt, Venus-CBFb-SMMHC, uHTS (AID 1434); type: protein assay;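 further: partner is the CBFb-SMMHC leukemia fusion protein rather than wild-type CBFb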
[2] = target: T1, Runt-related transcription factor 1/Core-binding factor subunit beta; experiment: inhibitors of RUNX1 Runt–CBFb-SMMHC binding, biochemical, TR-FRET (AID 1438); type: protein assay
[3] = target: Troponin, cardiac muscle (Homo sapiens, UniProt P19429+P45379+P63316); experiment: Fluorescence-based biochemical high throughput dose response assay for activators of the calcium sensitivity of cardiac Regulated Thin Filaments (RTF). [Related pubchem assays (depositor defined):AID493008, AID493018, AID504382, AID504383]; type: protein-complex assay
[4] = target: T2, Estrogen receptor (Homo sapiens, UniProt P03372);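 further: potency for inhibiting coactivator peptide recruitment to the receptor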
T2 sequence (P03372 whole entry): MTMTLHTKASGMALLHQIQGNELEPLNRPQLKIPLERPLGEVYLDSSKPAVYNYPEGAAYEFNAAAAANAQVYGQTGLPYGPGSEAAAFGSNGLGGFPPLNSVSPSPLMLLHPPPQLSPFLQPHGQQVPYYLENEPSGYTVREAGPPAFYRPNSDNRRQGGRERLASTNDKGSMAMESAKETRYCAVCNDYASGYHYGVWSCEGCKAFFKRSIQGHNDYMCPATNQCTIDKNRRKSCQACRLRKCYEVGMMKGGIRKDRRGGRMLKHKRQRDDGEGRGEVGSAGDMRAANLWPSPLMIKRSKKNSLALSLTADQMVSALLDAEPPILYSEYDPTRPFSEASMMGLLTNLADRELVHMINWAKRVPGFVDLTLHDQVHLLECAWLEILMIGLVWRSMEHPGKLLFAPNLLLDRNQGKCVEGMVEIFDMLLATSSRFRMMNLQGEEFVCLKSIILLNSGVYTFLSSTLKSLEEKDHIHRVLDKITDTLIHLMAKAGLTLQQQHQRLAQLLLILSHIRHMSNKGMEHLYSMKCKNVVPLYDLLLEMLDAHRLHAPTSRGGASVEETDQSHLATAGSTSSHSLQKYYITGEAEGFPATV

[5] = target: Female germline-specific tumor suppressor gld-1 (Caenorhabditis elegans, UniProt Q17339); experiment: inhibitors of GLD-1 binding to TGE RNA, dose response, biochemical, fluorescence polarization, C. elegans (AID 2802);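 further: fluorescence polarization of labeled TGE RNA bound by purified gld-1 protein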
[6] = target: Protein Rev (Human immunodeficiency virus type 1 group M subtype B (isolate HXB2)(HIV-1), UniProt P04618); experiment: inhibitors of Rev binding to RRE RNA, dose response, biochemical, fluorescence polarization, HIV-1 (AID 434976); parameters: species or system Human immunodeficiency virus 1
[7] = target: T3, Corticotropin-releasing factor receptor 2/Corticotropin-releasing factor-binding protein (Homo sapiens, UniProt P24387+Q13324); experiment: Dose Response confirmation of uHTS hits for small molecule antagonists of the CRF-binding protein and CRF-R2 receptor complex.; type: functional; conditions: read-out: IC50_Mean
T3 sequence (Q13324 whole entry): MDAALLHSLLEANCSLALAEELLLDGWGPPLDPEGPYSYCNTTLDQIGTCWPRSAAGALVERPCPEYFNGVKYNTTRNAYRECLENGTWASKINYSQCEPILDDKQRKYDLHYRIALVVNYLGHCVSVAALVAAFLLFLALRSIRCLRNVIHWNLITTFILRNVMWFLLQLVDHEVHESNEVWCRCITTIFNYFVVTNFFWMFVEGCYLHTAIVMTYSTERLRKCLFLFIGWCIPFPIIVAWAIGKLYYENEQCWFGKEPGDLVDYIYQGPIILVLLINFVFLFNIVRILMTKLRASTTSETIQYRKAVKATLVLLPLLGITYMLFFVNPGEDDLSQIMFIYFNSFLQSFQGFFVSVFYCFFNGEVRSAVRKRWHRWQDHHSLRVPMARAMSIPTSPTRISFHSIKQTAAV
T3 sequence (P24387 whole entry): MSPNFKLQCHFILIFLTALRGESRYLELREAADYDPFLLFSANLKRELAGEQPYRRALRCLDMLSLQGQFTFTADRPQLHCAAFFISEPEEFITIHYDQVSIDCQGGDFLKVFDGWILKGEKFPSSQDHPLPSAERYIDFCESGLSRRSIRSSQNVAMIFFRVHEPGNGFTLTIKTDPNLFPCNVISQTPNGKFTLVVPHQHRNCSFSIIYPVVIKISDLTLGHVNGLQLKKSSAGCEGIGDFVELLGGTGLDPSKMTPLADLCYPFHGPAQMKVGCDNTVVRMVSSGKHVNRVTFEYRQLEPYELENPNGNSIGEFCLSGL

[8] = target: T3, Corticotropin-releasing factor receptor 2/Corticotropin-releasing factor-binding protein; experiment: activators of CRF receptor 2 with binding protein – uHTS hits, confirmation (AID 602473); type: functional; conditions: read-out: EC50_Mean
[9] = target: Peroxisome proliferator-activated receptor gamma/Nuclear receptor coactivator 1 (Homo sapiens, UniProt P37231); experiment: (§1) TR-FRET dose response biochemical High Throughput Screening assay for agonists of the steroid receptor coactivator 1 (SRC-1) recruitment by the peroxisome proliferator-activated receptor gamma (PPAR gamma): non-selective agonists. [Related pubchem assays (depositor defined):AID1300, AID1808, AID504735, AID631]; type: protein assay
[10] = target: Peroxisome proliferator-activated receptor gamma/Nuclear receptor coactivator 3 (Homo sapiens, UniProt P37231); experiment: as §1, with “3 (SRC-3)” for “1 (SRC-1)”, “assays: 1301 (Confirmation screen.), 1048 (Primary screen.)]” for “assays (depositor defined):AID1300, AID1808, AID504735, AID631]”; type: functional
[11] = target: Peroxisome proliferator-activated receptor gamma/Nuclear receptor coactivator 2 (Homo sapiens, UniProt P37231); experiment: TR-FRET dose response biochemical High Throughput Screening assay for agonists of the steroid receptor coactivator 2 (SRC-2) recruitment by the peroxisome proliferator-activated receptor gamma (PPAR gamma): non-selective agonists. [Related pubchem assays: 1297, 1032 ]; type: functional
[12] = target: T4, Short transient receptor potential channel 4 (Mus musculus, UniProt Q9QUQ5); experiment: mouse TRPC4 channel activators, dose response, cell-based, HEK293 TRPC4/mu-opioid, Fluo-4 calcium (AID 434937); type: functional
T4 sequence (Q9QUQ5 whole entry): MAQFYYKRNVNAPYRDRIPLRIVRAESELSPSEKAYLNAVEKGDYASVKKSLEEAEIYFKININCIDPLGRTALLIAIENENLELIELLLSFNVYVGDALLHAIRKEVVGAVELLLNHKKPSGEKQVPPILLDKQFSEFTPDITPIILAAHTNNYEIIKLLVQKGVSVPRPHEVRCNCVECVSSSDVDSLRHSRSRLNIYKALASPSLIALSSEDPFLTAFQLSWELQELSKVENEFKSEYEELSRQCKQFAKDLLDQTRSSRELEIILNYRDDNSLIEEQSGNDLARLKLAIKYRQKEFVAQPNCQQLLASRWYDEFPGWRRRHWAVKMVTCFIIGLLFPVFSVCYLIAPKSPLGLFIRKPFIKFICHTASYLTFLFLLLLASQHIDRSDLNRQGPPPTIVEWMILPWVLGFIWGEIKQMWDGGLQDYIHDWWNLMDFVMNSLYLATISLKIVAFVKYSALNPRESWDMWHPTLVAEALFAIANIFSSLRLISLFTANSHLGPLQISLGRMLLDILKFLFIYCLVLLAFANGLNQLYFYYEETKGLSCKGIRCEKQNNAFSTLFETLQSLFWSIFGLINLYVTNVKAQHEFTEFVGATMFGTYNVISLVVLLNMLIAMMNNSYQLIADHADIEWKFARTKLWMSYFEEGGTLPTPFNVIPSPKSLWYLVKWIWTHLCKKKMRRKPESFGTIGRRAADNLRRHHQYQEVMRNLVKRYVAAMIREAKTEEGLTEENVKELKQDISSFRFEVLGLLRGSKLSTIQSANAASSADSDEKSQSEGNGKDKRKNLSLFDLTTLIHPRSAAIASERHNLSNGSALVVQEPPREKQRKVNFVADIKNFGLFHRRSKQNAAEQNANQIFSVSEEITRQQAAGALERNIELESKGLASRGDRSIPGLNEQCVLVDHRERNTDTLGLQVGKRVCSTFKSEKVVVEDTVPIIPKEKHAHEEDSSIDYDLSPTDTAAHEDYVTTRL

[13] = target: T5, SUMO-activating enzyme (Homo sapiens, UniProt Q9UBT2); experiment: inhibitors of in vitro SUMOylation cascade, primary screen, biochemical, HTRF, uHTS (AID 2006); type: protein-complex assay
[14] = target: T5, SUMO-activating enzyme; experiment: SUMOylation inhibitor hit validation, confirmation, SUMOylation inhibitor project, biochemical, AlphaScreen (AID 2018); type: functional
[15] = target: Ephrin type-A receptor 4 (Mus musculus, UniProt Q03137); experiment: inhibitors of EphA4 binding to KYL peptide, primary screen, biochemical, colorimetric, mouse EphA4 (AID 689); type: functional
[16] = target: SUMO E1/E2 (Homo sapiens, UniProt P63279+Q9UBE0+Q9UBT2); experiment: SAR analysis of SUMOylation using HTRF in an in-Vitro dose response assay. [Related pubchem assays (depositor defined):AID2006, AID2011, AID2018, AID2069, AID2658]; type: functional
[17] = target: Alkaline phosphatase, placental type (Homo sapiens, UniProt P05187); experiment: PLAP enzyme inhibitors, confirmation, biochemical, luminescence (AID 1512); type: functional
[18] = target: T6, Alkaline phosphatase, tissue-nonspecific isozyme (Homo sapiens, UniProt P05186); experiment: human TNAP enzyme inhibitors, SAR follow-up, biochemical, luminescent, dose response (AID 1056)
T6 sequence (P05186 whole entry): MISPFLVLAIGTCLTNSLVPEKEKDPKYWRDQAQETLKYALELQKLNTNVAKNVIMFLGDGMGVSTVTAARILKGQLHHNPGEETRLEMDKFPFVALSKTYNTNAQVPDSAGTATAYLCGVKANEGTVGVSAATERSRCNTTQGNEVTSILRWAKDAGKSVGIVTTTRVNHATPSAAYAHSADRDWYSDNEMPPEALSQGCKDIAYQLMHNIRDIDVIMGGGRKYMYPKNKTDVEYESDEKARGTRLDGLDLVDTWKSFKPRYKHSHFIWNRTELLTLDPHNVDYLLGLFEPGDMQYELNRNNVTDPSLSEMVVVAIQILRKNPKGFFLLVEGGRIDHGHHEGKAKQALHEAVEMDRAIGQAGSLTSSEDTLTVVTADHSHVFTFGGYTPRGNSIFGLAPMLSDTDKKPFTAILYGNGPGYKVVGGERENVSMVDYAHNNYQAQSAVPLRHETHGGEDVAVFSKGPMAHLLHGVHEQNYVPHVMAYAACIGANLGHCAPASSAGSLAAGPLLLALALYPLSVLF

[19] = system: INS1; experiment: beta cell apoptosis inhibitors, cytokine rescue, dose response, luminescence, retest (AID 449756); type: functional, cell-based; conditions: Rattus norvegicus;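 further: cell death triggered by IL-1 beta plus TNF-alpha plus IFN-gamma mixture; protective hits raise ATP signal compared with cytokine alone wells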
[20] = HepG2 cell cytotoxicity, dose response, cytotoxicity control for non-replicating M. tuberculosis project (AID 489018); type: functional; conditions: Mycobacterium tuberculosis
[21] = cells; type: functional
[22] = growth suppression of beta-catenin-knockout colon cells, dose response, cell-based, HCT116, human colon tumor (AID 1045); type: functional;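 further: HCT116 colon tumor cells with beta catenin knocked out; cells exposed to compound for 60 hours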
[23] = Vero E6 cell cytotoxicity, dose response, cytotoxicity control for non-replicating M. tuberculosis project, secondary assay (AID 492998); type: functional, VeroE6; conditions: Vero C1008
[24] = growth suppression of PTEN-null colon cells, dose response, cell-based, HCT116 PTEN knockout (AID 1047); type: functional;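 further: HCT116 colon tumor cells with PTEN knocked out; cells exposed to compound for 60 hours before readout; potency for loss of cell viability measured by luminescence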
[25] = THP-1 cell cytotoxicity, dose response, cytotoxicity control for non-replicating M. tuberculosis project (AID 489025); type: functional
[26] = target: Glyceraldehyde-3-phosphate dehydrogenase (Homo sapiens, UniProt P04406)

CCOc1cc(C2C3=C(CCCC3=O)N(CCC(=O)O)C3=C2C(=O)CCC3)ccc1OS(=O)(=O)c1ccc(C)cc1
IC50 [1]: 0.629 µM (active)
IC50 [2]: 30.5 µM (active)

O=C(Nc1nc(-c2nc3ccccc3s2)cs1)C1COc2ccccc2O1 (configuration not stated)
EC50 [3]: > 71.5 µM (inactive)
IC50 [4]: 25.1 µM (active)

Cc1cccn2c(=O)c(/C=C(\C#N)C(=O)NCc3ccco3)c(N3CCC(C(N)=O)CC3)nc12
IC50 [1]: > 100 µM (inactive)
IC50 [2]: > 100 µM (inactive)

CCOc1cc(C2C(C(=O)OC)=CN(C3CCCC3)C=C2C(=O)OC)cc(Br)c1O
IC50 [5]: > 59.6 µM (inactive)
IC50 [6]: > 75.4 µM (not active)
IC50 [7]: > 47.1 µM (inactive)
EC50 [8]: > 53 µM (inactive)

CCCC(C)NC(=O)c1ccc(OCc2ccc(Cl)cc2)c(OC)c1 (configuration not stated)
EC50 [9]: 157 µM (inactive)
EC50 [10]: 13.8 µM (not active)
EC50 [11]: > 79.4 µM (not active)

CCn1c(N2CCN(C(S)=NCC(C)C)CC2)nc2ccccc21
EC50 [12]: 1.68 µM (active)

Cc1ccc(NC(=O)c2ccccc2OCC(=O)Nc2cccc(Cl)c2C)nc1
IC50 [13]: 17.8 µM (active)
IC50 [14]: 34.5 µM (active)

COc1ccc(-n2c(NC(=O)c3ccc(Br)o3)c(C#N)c3nc4ccccc4nc32)cc1
IC50 [13]: 17.8 µM (active)
IC50 [15]: > 100 µM (not active)
IC50 [14]: 8.09 µM (active)
IC50 [16]: 20.2 µM (active)

CCc1nnc(SCC(=O)c2ccc(O)c(O)c2)[nH]1
IC50 [17]: 3.25 µM (active)
IC50 [18]: 10.9 µM (active)

CCn1cc(CN2CCC(n3nccc3NC(=O)CCOc3ccccc3)CC2)cn1
EC50 [12]: 1.19 µM (active)

O=C(Cc1ccccc1)N/N=C/c1ccc([N+](=O)[O-])s1
AC50 [19]: 6.38 µM (active)
CC50 [20]: 16 µM (active)
IC50 [21]: 11.1 µM (active)
EC50 [22]: 8.44 µM (active)
CC50 [23]: 12.5 µM (active)
EC50 [24]: 9.53 µM (active)
CC50 [25]: 26.6 µM (active)

O=C(c1cc(-c2ccc(Cl)cc2Cl)n[nH]1)N1CCOCC1
IC50 [17]: > 100 µM (inactive)
IC50 [26]: > 100 µM (not active)
